Patent US6680326B2, “Polycyclic compounds” (Hoffmann-La Roche Inc., priority 2001, dated 2004)
≈ marks a conversion by molar mass, not a printed value.

What follows are compounds tested on HCT116 cell line (colorectal cancer) (assay: Anti-proliferative activity assay (WST-8, 4 days)). Details: Homo sapiens, HCT-116, 96 h; in vitro growth of HCT116 cells, 4 days incubation, WST-8 readout.
Type: cell-based
Procedure: A single suspension of tumor cells was inoculated to the serially diluted 96-well microtestplate. Then the testplate was incubated in the 5% CO2 ambience at 37° C. for 4 days (2-3×10^3 cells/well). The degree of cell growth in a monolayer was measured by using WST-8 (Dojindo, Japan). IC50 values of the polycyclic compounds concerned against tumor cells were calculated as the concentration of drug yielding 50% OD of the control growth. The IC50 value measures the drug concentration for 50% inhibition of the growth of tumor cells in vitro as compared to the control.
The anti-tumor activity of polycyclic compounds of the formula [I] against in vitro growth of HCT116 cell line (colorectal cancer) is summarized in Table 1.

IC50 [ng/mL]	SMILES
3.9 (≈ 0.0112 µM)	Cc1c(O)ccc2c3c(c(NCCN(C)C)nc12)C(=O)c1ccncc1-3 [Example 45, 6-(2-dimethylamino-ethylamino)-3-hydroxy-4-methyl-5,10-diaza-benzo[c]fluoren-7-one]
3.9 (≈ 0.0112 µM)	Cc1cc2c(cn1)-c1c(c(NCCN(C)C)nc3cc(O)ccc13)C2=O [Example 47, 6-(2-dimethylamino-ethylamino)-3-hydroxy-9-methyl-5,10-diaza-benzo[c]fluoren-7-one]
2.2 (≈ 0.00631 µM)	Cc1c(O)ccc2c3c(c(NCCN(C)C)nc12)C(=O)c1cnccc1-3 [Example 46, 6-(2-dimethylamino-ethylamino)-3-hydroxy-4-methyl-5,9-diaza-benzo[c]fluoren-7-one]
0.35 (≈ 0.00105 µM)	CN(C)CCNc1nc2cc(O)ccc2c2c1C(=O)c1cnccc1-2 [Example 41, 6-(2-dimethylamino-ethylamino)-3-hydroxy-5,9-diaza-benzo[c]fluoren-7-one]

SMILES	IC50 [ng/mL]
CN(C)CCNc1nc2cc(O)ccc2c2c1C(=O)c1ccccc1-2 [Reference compound, 6-(2-dimethylamino-ethylamino)-3-hydroxy-7H-indeno[2,1-c]quinolin-7-one, reference compound]	12 (≈ 0.036 µM)
